According to ChEMBL document CHEMBL6120941, “Discovery of SIRT1-Activating Hydrogen Sulfide Donating Derivatives for Efficient Resistant of Myocardial Ischemic Injury” (J Med Chem, 2024):
Activity calls are given as the source filed them. No cut-off for these calls is given here.

Assays:
Rattus norvegicus [1] = assay: Cardioprotective activity in myocardial ischemia Sprague-Dawley rat model assessed as decrease in ISO-induced ST segment at 10 to 30 mg/kg, IG treated for 7 days consecutively followed by ISO administration daily for 2 days consecutively by ECG analysis; type: functional, organism-based; settings: dose 10-30 mg/kg, time 9.0 day
H9c2 [2] = assay: Antioxidant activity against CoCl2-induced cellular hypoxia injury in rat H9c2 cells assessed as increase in hypoxia-reduced GSH level at 5 to 10 uM incubated for 24 hrs; type: functional, cell-based; settings: dose 5-10 µM
[3] = Induction of H2S […] activity in presence of GSSH; type: functional
Rattus norvegicus [4] = assay: Cardioprotective activity in myocardial ischemia Sprague-Dawley rat model assessed as improvement in positional rearrangement at 10 to 30 mg/kg, IG treated for 7 days consecutively followed by ISO administration daily for 2 days consecutively by H and E/Masson staining based analysis; type: functional, organism-based; settings: dose 10-30 mg/kg, time 9.0 day
[5] = Induction of H2S release in PBS at pH 7.4 measured upto 60 mins by methylene blue method; type: functional
[6] = Induction of H2S release in PBS at pH 7.4 at 100 uM measured upto 60 mins by methylene blue method; type: functional
H9c2 [7] = assay: Cardioprotective activity against CoCl2-induced cellular hypoxia injury in rat H9c2 cells assessed as inhibition of CoCl2-induced morphological changes at 5 to 10 uM incubated for 24 hrs by fluorescence based analysis; type: functional, cell-based; settings: dose 5-10 µM
Rattus norvegicus [8] = assay: Cardioprotective activity in myocardial ischemia Sprague-Dawley rat model assessed as myocardial infarction area at 30 mg/kg, IG treated for 7 days consecutively followed by ISO administration daily for 2 days consecutively by TTC staining based analysis (reference value: 32.65 %); type: functional; settings: time 9 day
H9c2 [9] = assay: Antioxidant activity against CoCl2-induced cellular hypoxia injury in rat H9c2 cells assessed as decrease in hypoxia-induced LDH release at 5 to 10 uM incubated for 24 hrs; type: functional, cell-based; settings: dose 5-10 µM
[10] = Toxicity in myocardial ischemia Sprague-Dawley rat model assessed as change in body weight at 10 to 30 mg/kg, IG treated for 7 days consecutively followed by ISO administration daily for 2 days consecutively; type: organism-based; settings: in vivo, po, 216 h, dose 10-30 mg/kg, time 9 day
Rattus norvegicus [11] = assay: In vivo activation of SIRT1 in myocardial tissue of myocardial ischemia Sprague-Dawley rat model at 10 to 30 mg/kg, IG treated for 7 days consecutively followed by ISO administration daily for 2 days consecutively by Western blot analysis; type: functional, organism-based; settings: dose 10-30 mg/kg, time 9.0 day
H9c2 [12] = assay: Induction of H2S release in rat H9c2 cells incubated for 24 hrs by fluorescence based imaging analysis; type: functional, cell-based; settings: dose 0.625-10 µM
H9c2 [13] = assay: Cardioprotective activity against CoCl2-induced cellular hypoxia injury in rat H9c2 cells assessed as rate of apoptosis at 10 uM incubated for 24 hrs in presence of GSSG by flow cytometry (reference value: 19.5 %); type: functional
H9c2 [14] = assay: Cardioprotective activity against CoCl2-induced cellular hypoxia injury in rat H9c2 cells assessed as cell viability at 0.625 uM incubated for 24 hrs by CCK-8 assay (reference value: 51.80 +/- 2.58 %); type: functional; settings: read-out: Activity
Rattus norvegicus [15] = assay: Cardioprotective activity in myocardial ischemia Sprague-Dawley rat model assessed as myocardial infarction area at 10 mg/kg, IG treated for 7 days consecutively followed by ISO administration daily for 2 days consecutively by TTC staining based analysis (reference value: 32.65 %); type: functional; settings: time 9 day
H9c2 [16] = assay: Cardioprotective activity against CoCl2-induced cellular hypoxia injury in rat H9c2 cells assessed as cell viability at 10 uM incubated for 24 hrs by CCK-8 assay (reference value: 51.80 +/- 2.58 %); type: functional; settings: read-out: Activity
Rattus norvegicus [17] = assay: Cardioprotective activity in myocardial ischemia Sprague-Dawley rat model assessed as improvement in tissue clearance at 10 to 30 mg/kg, IG treated for 7 days consecutively followed by ISO administration daily for 2 days consecutively by H and E/Masson staining based analysis; type: functional, organism-based; settings: dose 10-30 mg/kg, time 9.0 day
H9c2 [18] = assay: Cardioprotective activity against CoCl2-induced cellular hypoxia injury in rat H9c2 cells assessed as preservation of nuclear morphology at 5 to 10 uM incubated for 24 hrs by Hoechst 33258 nuclear staining based analysis; type: functional, cell-based; settings: dose 5-10 µM
H9c2 [19] = assay: Antioxidant activity against CoCl2-induced cellular hypoxia injury in rat H9c2 cells assessed as decrease in hypoxia-induced CK level at 5 to 10 uM incubated for 24 hrs; type: functional, cell-based; settings: dose 5-10 µM
H9c2 [20] = assay: Cardioprotective activity against CoCl2-induced cellular hypoxia injury in rat H9c2 cells assessed as improvement in nuclear shrinkage at 5 to 10 uM incubated for 24 hrs by Hoechst 33258 nuclear staining based analysis; type: functional, cell-based; settings: dose 5-10 µM
H9c2 [21] = assay: Cardioprotective activity against CoCl2-induced cellular hypoxia injury in rat H9c2 cells assessed as cell viability at 5 uM incubated for 24 hrs by CCK-8 assay (reference value: 51.80 +/- 2.58 %); type: functional; settings: read-out: Activity
[22] = target: T1, NAD-dependent protein deacetylase sirtuin-1 (Rattus norvegicus) (UniProt A0A0G2JZ79); assay: Activation of SIRT1 in CoCl2-induced cellular hypoxia injury in rat H9c2 cells at 10 uM incubated for 24 hrs in presence of GSSG by immunofluorescence based analysis; type: cell-based
T1 sequence (whole entry): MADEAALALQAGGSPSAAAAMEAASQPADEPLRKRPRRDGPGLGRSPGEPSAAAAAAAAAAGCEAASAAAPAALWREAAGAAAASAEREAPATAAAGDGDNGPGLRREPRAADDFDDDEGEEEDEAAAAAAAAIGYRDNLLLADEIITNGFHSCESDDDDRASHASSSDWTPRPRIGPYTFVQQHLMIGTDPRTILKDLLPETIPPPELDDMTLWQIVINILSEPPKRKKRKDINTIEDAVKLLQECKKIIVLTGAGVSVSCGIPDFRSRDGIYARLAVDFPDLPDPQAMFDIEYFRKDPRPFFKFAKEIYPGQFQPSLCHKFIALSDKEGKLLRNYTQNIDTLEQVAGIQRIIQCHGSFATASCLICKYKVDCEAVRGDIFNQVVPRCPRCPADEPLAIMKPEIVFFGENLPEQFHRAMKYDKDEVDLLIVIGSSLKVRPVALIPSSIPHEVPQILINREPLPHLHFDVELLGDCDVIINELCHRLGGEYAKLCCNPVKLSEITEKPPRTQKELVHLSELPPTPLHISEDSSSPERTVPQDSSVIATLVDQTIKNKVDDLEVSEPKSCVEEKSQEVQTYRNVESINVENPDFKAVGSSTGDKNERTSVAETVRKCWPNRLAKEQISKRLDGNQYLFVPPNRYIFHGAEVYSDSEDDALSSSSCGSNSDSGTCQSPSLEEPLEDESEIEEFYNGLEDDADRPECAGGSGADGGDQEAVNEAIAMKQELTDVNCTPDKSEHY

H9c2 [23] = assay: Cardioprotective activity against CoCl2-induced cellular hypoxia injury in rat H9c2 cells assessed as rate of necrosis at 10 uM incubated for 24 hrs in presence of GSSG by flow cytometry (reference value: 22.5 %); type: functional
H9c2 [24] = assay: Antioxidant activity against CoCl2-induced cellular hypoxia injury in rat H9c2 cells assessed as decrease in hypoxia-induced MDA level at 5 to 10 uM incubated for 24 hrs; type: functional, cell-based; settings: dose 5-10 µM
H9c2 [25] = assay: Induction of H2S release in rat H9c2 cells incubated for 24 hrs by AzMC probe based analysis; type: functional, cell-based; settings: dose 1.25-10 µM

In the case of `C=CCSSCCC(=O)O[C@H]1CC[C@]2(C)[C@H]3C[C@@H](O)[C@@H]4[C@@H]([C@]5(C)CC[C@@H](C(C)(C)O)O5)CC[C@@]4(C)[C@]3(C)CC[C@H]2C1(C)C`, the Activity (Rattus norvegicus [1]) is reported as “Active”, the Activity (H9c2 [2]) is reported as “Active” and the Activity [3] is reported as 18.6%. The Activity (Rattus norvegicus [4]) was “Active”, the Activity [5] was 30.7 µM and the Activity [6] was “Active”. The inhibition (H9c2 [7]) was “Active”, the Activity (Rattus norvegicus [8]) was 13.24% and the Activity (H9c2 [9]) was “Active”. For the same compound, the Activity [10] was “Non-toxic”, the Activity (Rattus norvegicus [11]) was “Active” and the Activity (H9c2 [12]) was “Dose-dependent-effect”. For the same compound, the Activity (H9c2 [13]) was 8.01%, the viability at 0.625 µM (H9c2 [14]) was 76.5% and the Activity (Rattus norvegicus [15]) was 12.68%. The viability at 10 µM (H9c2 [16]) was 97.9%, the Activity (Rattus norvegicus [17]) was “Active” and the Activity (H9c2 [18]) was “Active”. The Activity (H9c2 [19]) was “Active”, the Activity (H9c2 [20]) was “Active” and the viability at 5 µM (H9c2 [21]) was 94.2%. For the same compound, the Activity [22] was “inactive”, the Activity (H9c2 [23]) was 7.54% and the Activity (H9c2 [24]) was “Active”. For the same compound, the Activity (H9c2 [25]) was “Dose-dependent-effect; Exhibited Highest Release Efficiency Among Tested Compounds”.
